Measurements published in patent US10570179B2, “Substituted urea depsipeptide analogs as activators of the CLPP endopeptidase” (priority 2016, dated 2020).
Numbered stars: 1 amine (or outer) side, 2 acyl side, 3 side chain; on linkers, the order of the positions; unused ones are H or OH. Bridge positions count the residues as written; N and C are the ends. Square brackets hold non-standard residues; d marks the D form. Peptide text beside a SMILES is read from it. * marks the point of attachment. Piperazine(2S-CO,4-Me) = CN1CCN[C@H](C(=O)O)C1; Phe(3,5-F2) = N[C@@H](Cc1cc(F)cc(F)c1)C(=O)O; NH(1-Me-indolin-5-yl) = CN1CCc2cc(N*)ccc21; Phe(3-Cl) = N[C@@H](Cc1cccc(Cl)c1)C(=O)O; Morpholine(3S-CO) = O=C(O)[C@@H]1COCCN1; Phe(3-Me) = Cc1cccc(C[C@H](N)C(=O)O)c1; NH(4-Cl-2-F-phenyl) = Fc1cc(Cl)ccc1N*; Pro(4R-Me) = C[C@H]1CN[C@H](C(=O)O)C1; X1 = O=C([C@@H]1CSCCN1[*:1])[*:2]; Hyp = O=C(O)[C@@H]1C[C@@H](O)CN1; NH(4-Me-phenyl) = Cc1ccc(N*)cc1; aThr = C[C@H](O)[C@H](N)C(=O)O; CO = O=C([*:1])[*:2]

How the values were obtained:
[1] = target: T1, S. aureus ClpP (Sa-ClpP) (Staphylococcus aureus, UniProt Q2G036); assay: Casein-BODIPY digestion assay (ClpP activation); type: biochemical
T1 construct: made in house; host or cells: E. coli BL21 (DE3)

[2] = Plasma protein binding, rapid equilibrium dialysis; type: in vitro ADME, mouse
Experimental: This assay determines plasma protein binding of a drug/compound and free drug concentration in plasma using rapid equilibrium dialysis, which allow the aqueous component of plasma containing the free drug/compound through a dialysis membrane (MWCO˜8,000).
Solutions were prepared at 10 mM in DMSO. Dulbecco's phosphate buffered saline (DPBS; pH 7.4) was obtained from Invitrogen (Carlsbad, Calif.). Single-Use RED (rapid equilibrium dialysis) device was obtained from Thermo scientific (Rockford, Ill.). Human plasma was obtained from Innovative Research INC (Novi, Michigan, Ill).
Sample preparation for plasma protein binding was modified from Waters' method. (Waters et al. (2008) J. Pharm. Sci. 97(10): 4586-95). The Teflon base plate with the RED inserts (MWCO 8 K) were allowed to use without any pre-condition the membrane inserts. Human plasma was thawed and centrifuged at 1000 rpm for 2 min to remove any particulates. Each compound was prepared at 10 μM in human plasma. This was done by adding 1 μL, of drug solution (10 mM in DMSO) to 1000 μL, of human plasma (0.1% DMSO). Spiked plasma solutions (300 μL) were placed into the sample chamber (indicated by the red ring) and 500 μL, of DPBS into the adjacent chamber. The plate was sealed and incubated at 37° C. on an orbital shaker (100 rpm) for 4 hours. After incubation, the seal was removed from the RED plate and the volume of the insert confirmed—little to no volume change occurred. Aliquots (50 μL) were removed from each side of the insert and dispensed into a 96-well deep plate. An equal volume of blank plasma or DPBS was added to the required wells to create analytically identical sample matrices (matrix matching). To each sample 200 μL, of ACN containing 4 μg/mL warfarin IS was added. All of the plates were sealed and mixed well at 600 rpm for 10 min and were centrifuged at 4000 rpm for 20 min. The supernatants (120 μL) were transferred to analytical plates for analysis by LCMS. Conditions for Waters ACQUITY-UPLC-MS-UV system were described separately. The test compound concentrations were quantified in both buffer and plasma chambers via peak areas relative to the internal standard. The percentage of the test compound bound to plasma was calculated on following equations: % Free=(Concentration buffer chamber/concentration plasma chamber)×100% and % Bound=100%-% Free.

[3] = Plasma stability assay; type: in vitro ADME, human
Experimental: The plasma stability property of early drug discovery compounds can influence the in vivo efficacy of the test compounds/drugs. Human and/or mouse plasma degradation is determined using multiple time points to monitor the rate of disappearance of the parent compound during incubation.
Sample preparation for plasma stability was modified from Di et al. (2005) Int. J. Pharm. 297(1-2): 110-119. A set of incubation times of 0, 3, 24, and 48 hour were used. DMSO stock solutions of test compounds were prepared at 10 mM concentration. 1.8 μL of each test compound was each added directly to 1.8 mL of human/mouse plasma to get the final concentration of 10 μM. This compound/matrix was mixed and 70 μL was transferred to 8 time points plates (each in triplicate wells). For the Time 0 plate, 210 μL of cold acetonitrile with internal standard (4 μg/mL warfarin) was added to each well and no incubation needed. For other seven time points' plate, the plate was incubated at 37° C. for required time, followed by quenching of the reaction by adding 210 μL of cold acetonitrile with internal standard (4 μg/ml warfarin) to each well. All of the plates were sealed and mixed well at 600 rpm for 10 min and were centrifuged at 4000 rpm for 20 min. The supernatants (120 μL) were transferred to analytical plates for analysis by LCMS. Conditions for Waters ACQUITY-UPLC-MS-UV system was described separately. The plasma stability was evaluated via the half-life from least-squares fit of the multiple time points based on first-order kinetics.

[4] = plasma binding, % Bound, mouse plasma
[5] = plasma stability half-life, human plasma, 37° C.

T1 sequence (Q2G036 whole entry): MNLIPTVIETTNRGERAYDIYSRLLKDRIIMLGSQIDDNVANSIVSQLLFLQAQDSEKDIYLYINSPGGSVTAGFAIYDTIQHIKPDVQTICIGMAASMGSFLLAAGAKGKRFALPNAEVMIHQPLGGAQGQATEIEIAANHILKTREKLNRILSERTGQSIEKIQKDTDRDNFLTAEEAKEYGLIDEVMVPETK

**Q.** Which results are given for Cc1cccc(C[C@H](NC(=O)Nc2ccc(Cl)cc2F)C(=O)N[C@@H]2C(=O)N3CCC[C@H]3C(=O)N3CCN(C)C[C@H]3C(=O)N[C@@H](C)C(=O)N3C[C@H](C)C[C@H]3C(=O)O[C@H]2C)c1 [Compound 11, (S)-2-(3-(4-CHLORO-2-FLUOROPHENYL)UREIDO)-N-((6AS,12S,13S,15AS,17R,21S,23AS)-2,13,17,21-TETRAMETHYL-6,11,15,20,23-PENTAOXOOCTADECAHYDRO-2H,6H,11H,15H-PYRAZINO[2,1-I]DIPYRROLO[2,1-C:2′,1′-L][1]OXA[4,7,10,13]TETRAAZACYCLOHEXADECIN-12-YL)-3-(M-TOLYL)PROPANAMIDE] ({NH(4-Cl-2-F-phenyl)-CO}-[Phe(3-Me)][aThr]P[Piperazine(2S-CO,4-Me)]A[Pro(4R-Me)]; ester 2-C)?
**A.** EC50 [1]: 290 ± 10 nM; Mouse ([2]; mouse, 4 h, 10 μM, pH 7.4): 98.8 ± 0.4%; Human ([3]; human, 10 μM): 44.21 h

**Q.** Which EC50 [1] does the source give for Cc1cccc(C[C@H](NC(=O)Nc2ccc(Cl)cc2F)C(=O)N[C@H]2COC(=O)[C@@H]3C[C@@H](C)CN3C(=O)[C@H](C)NC(=O)[C@@H]3CCCCN3C(=O)[C@@H]3C[C@H](N)CN3C2=O)c1 [Compound 12, (S)—N-((2R,6S,8AS,14AS,16S,20S,23AS)-16-AMINO-2,6-DIMETHYL-5,8,14,19,23-PENTAOXOOCTADECAHYDRO-1H,5H,14H,19H-PYRIDO[2,1-I]DIPYRROLO[2,1-C:2′,1′-L][1]OXA[4,7,10,13]TETRAAZACYCLOHEXADECIN-20-YL)-2-(3-(4-CHLORO-2-FLUOROPHENYL)UREIDO)-3-(M-TOLYL)PROPANAMIDE] here?
**A.** 580 ± 20 nM

**Q.** What about the Mouse ([2]; mouse, 4 h, 10 μM, pH 7.4) of the same molecule?
**A.** 99.6 ± 0.0%

**Q.** And the “Human” value ([3]; human, 10 μM)?
**A.** 38.58 h

**Q.** For Cc1ccc(NC(=O)N[C@@H](Cc2cccc(C)c2)C(=O)N[C@@H]2C(=O)N3C[C@H](O)C[C@H]3C(=O)N3CCN(C)C[C@H]3C(=O)N[C@@H](C)C(=O)N3C[C@H](C)C[C@H]3C(=O)O[C@H]2C)cc1 [Compound 30, (S)—N-((6AS,8R,12S,13S,15AS,17R,21S,23AS)-8-HYDROXY-2,13,17,21-TETRAMETHYL-6,11,15,20,23-PENTAOXOOCTADECAHYDRO-2H,6H,11H,15H-PYRAZINO[2,1-I]DIPYRROLO[2,1-C:2′,1′-L][1]OXA[4,7,10,13]TETRAAZACYCLOHEXADECIN-12-YL)-3-(M-TOLYL)-2-(3-(P-TOLYL)UREIDO)PROPANAMIDE] ({NH(4-Me-phenyl)-CO}-[Phe(3-Me)][aThr][Hyp][Piperazine(2S-CO,4-Me)]A[Pro(4R-Me)]; ester 2-C), which EC50 [1] is on record?
**A.** 290 ± 290 nM

**Q.** And the Mouse [2, 4]?
**A.** 92.4 ± 2.4%

**Q.** And the “Human” value [3, 5]?
**A.** >50 h

**Q.** For C[C@@H]1C[C@H]2C(=O)O[C@@H](C)[C@H](NC(=O)[C@H](Cc3cccc(Cl)c3)NC(=O)Nc3ccc(Cl)cc3F)C(=O)N3CCC[C@H]3C(=O)N3CCN(C)C[C@H]3C(=O)N[C@@H](C)C(=O)N2C1 [Compound 33] ({NH(4-Cl-2-F-phenyl)-CO}-[Phe(3-Cl)][aThr]P[Piperazine(2S-CO,4-Me)]A[Pro(4R-Me)]; ester 2-C), which EC50 [1] is on record?
**A.** 200 ± 200 nM

**Q.** And the Mouse ([2]; mouse, 4 h, 10 μM, pH 7.4)?
**A.** 99.5 ± 9.5%

**Q.** And the “Human” value ([3]; human, 10 μM)?
**A.** >50 h

**Q.** Which Mouse [2, 4] does the source give for C[C@@H]1C[C@H]2C(=O)O[C@@H](C)[C@H](NC(=O)[C@H](Cc3cc(F)cc(F)c3)NC(=O)Nc3ccc4c(c3)CCN4C)C(=O)N3CCC[C@H]3C(=O)N3CCOC[C@H]3C(=O)N[C@@H](C)C(=O)N2C1 [Compound 32] ({NH(1-Me-indolin-5-yl)-CO}-[Phe(3,5-F2)][aThr]P[Morpholine(3S-CO)]A[Pro(4R-Me)]; ester 2-C) here?
**A.** 91.5 ± 1.5%

**Q.** And the “Human (hr)” value [3, 5]?
**A.** >>48 hr

**Q.** For Cc1ccc(NC(=O)N[C@@H](Cc2cccc(C)c2)C(=O)N[C@@H]2C(=O)N3C[C@H](O)C[C@H]3C(=O)N3CCSC[C@H]3C(=O)N[C@@H](C)C(=O)N3C[C@H](C)C[C@H]3C(=O)O[C@H]2C)cc1 [Compound 42, (S)—N-((6AS,8R,12S,13S,15AS,17R,21S,23AR)-8-HYDROXY-13,17,21-TRIMETHYL-6,11,15,20,23-PENTAOXOOCTADECAHYDRO-6H,11H,15H-DIPYRROLO[2,1-C:2′,1′-L][1,4]THIAZINO[3,4-I][1]OXA[4,7,10,13]TETRAAZACYCLOHEXADECIN-12-YL)-3-(M-TOLYL)-2-(3-(P-TOLYL)UREIDO)PROPANAMIDE] ({NH(4-Me-phenyl)-CO}-[Phe(3-Me)][aThr][Hyp][X1]A[Pro(4R-Me)]; ester 2-C), which Mouse [2, 4] is on record?
**A.** 97.4 ± 7.4%

**Q.** And the “Human” value [3, 5]?
**A.** >50 h
